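All cell lines were grown in 96-well plates and treated with compound for 48 hours. The concentration for full growth arrest is given as TGI.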

Among the test systems are SW-620 colon; CAKI-1 renal; SK-MEL-2 melanoma; NCI-H226 lung; HCC-2998 colon; A498 renal; IGROV1 ovarian; NCI-H23 lung; HCT-15 colon; T-47D breast; SNB-75 CNS; CCRF-CEM leukemia; LOX IMVI melanoma.
Assay in all cases: NCI anticancer screen, dose series, 48 h

In the case of `Cc1cc(CN(Cc2ccccc2)Cc2nc3ccccc3[nH]2)c(O)c(CN(Cc2nc3ccccc3[nH]2)Cc2nc3ccccc3[nH]2)c1`, the TGI is more than 100 µM in the experiment on SW-620 colon; more than 100 µM in the experiment with CAKI-1 renal; 36.1 µM in the experiment on SK-MEL-2 melanoma; more than 50.9 µM in the experiment with NCI-H226 lung; 38 µM with HCC-2998 colon; more than 48.6 µM with A498 renal. Moreover, the TGI in the experiment with IGROV1 ovarian is more than 93.2 µM; in the experiment on NCI-H23 lung it was more than 79.5 µM; in the experiment on HCT-15 colon, more than 23.1 µM; with T-47D breast, more than 69.5 µM; in the experiment on SNB-75 CNS, more than 72.3 µM; in the experiment with CCRF-CEM leukemia, more than 21.8 µM. In the experiment with LOX IMVI melanoma, this compound gave a TGI of 13.3 µM.
For the compound `O=C1CC(NC2CC(=O)c3c(Br)sc(Br)c32)c2c(Br)sc(Br)c21` (configuration not stated), the TGI in the experiment with SW-620 colon was 4.95 µM; in the experiment on CAKI-1 renal, 9.72 µM; with SK-MEL-2 melanoma, 14.5 µM; with NCI-H226 lung, 34.1 µM; in the experiment with HCC-2998 colon it was 30.8 µM; in the experiment with A498 renal, 32.6 µM. Besides, the TGI in the experiment on IGROV1 ovarian turned out to be 8.43 µM; in the experiment with NCI-H23 lung it was 28.3 µM; in the experiment on HCT-15 colon, 9.2 µM; in the experiment with T-47D breast, 8.25 µM; with SNB-75 CNS it was 31.4 µM; with CCRF-CEM leukemia, 3.17 µM. In addition, the TGI in the experiment on LOX IMVI melanoma worked out at 4.68 µM.
For the compound `NS(=O)(=O)c1ccc(N=Nc2ccc(O)c(O)c2)cc1`, the TGI in the experiment with SW-620 colon was 41.4 µM; in the experiment with CAKI-1 renal it was more than 100 µM; with SK-MEL-2 melanoma, 34 µM; with NCI-H226 lung it was 40.8 µM; in the experiment with HCC-2998 colon, 41.3 µM; in the experiment on A498 renal, more than 100 µM. The TGI with IGROV1 ovarian was 28.3 µM; with NCI-H23 lung, 51.8 µM; with HCT-15 colon, 12.6 µM; in the experiment on T-47D breast, more than 100 µM; with SNB-75 CNS, 60.8 µM; with CCRF-CEM leukemia, 60 µM. In the experiment on LOX IMVI melanoma, the TGI amounted to 36 µM.
`CC1(C)CC(=O)C(CC2C(=O)c3ccccc3C2=O)C(=O)C1C(=O)C(=O)Nc1cccc2ccc(O)cc12` (configuration not stated): the TGI is more than 100 µM in the experiment with SW-620 colon; more than 100 µM in the experiment on CAKI-1 renal; more than 100 µM in the experiment with SK-MEL-2 melanoma; more than 100 µM in the experiment on NCI-H226 lung; more than 100 µM in the experiment with HCC-2998 colon; 69.8 µM in the experiment with A498 renal. Also, the TGI in the experiment on IGROV1 ovarian, in the experiment with NCI-H23 lung, in the experiment on HCT-15 colon, with T-47D breast, with SNB-75 CNS and in the experiment with CCRF-CEM leukemia was more than 100 µM throughout. Further, the TGI with LOX IMVI melanoma is more than 100 µM.
In the case of `CCNC(=S)Nc1c(C#N)c2n(c1C(=O)OCC)CCCCC2`, the TGI in the experiment on SW-620 colon, in the experiment with CAKI-1 renal, in the experiment on SK-MEL-2 melanoma, in the experiment on NCI-H226 lung, in the experiment with HCC-2998 colon and with A498 renal was more than 100 µM throughout. The TGI in the experiment on IGROV1 ovarian, in the experiment on NCI-H23 lung, with HCT-15 colon, with T-47D breast, with SNB-75 CNS and with CCRF-CEM leukemia was more than 100 µM throughout. In addition, the TGI in the experiment on LOX IMVI melanoma is more than 100 µM.
With `CCSC1=C(C#N)C2(CCCCC2)C2=C(CC(C)(C)CC2=O)N1`, the TGI in the experiment with SW-620 colon is more than 100 µM; in the experiment with CAKI-1 renal it was more than 100 µM; with SK-MEL-2 melanoma, more than 100 µM; with NCI-H226 lung, more than 100 µM; in the experiment on HCC-2998 colon it was more than 100 µM; in the experiment with A498 renal, 64.6 µM. Further, the TGI in the experiment on IGROV1 ovarian was more than 100 µM; in the experiment on NCI-H23 lung, more than 100 µM; with HCT-15 colon it was more than 100 µM; with T-47D breast it was more than 100 µM; in the experiment with SNB-75 CNS it was 71.1 µM; in the experiment on CCRF-CEM leukemia, more than 100 µM. Besides, the TGI in the experiment on LOX IMVI melanoma was more than 100 µM.
As for `Nc1cccc(/C=C/CN2CCN(CCOC(c3ccccc3)c3ccccc3)CC2)c1`, the TGI in the experiment on SW-620 colon is 33.9 µM; with CAKI-1 renal, 34.1 µM; with SK-MEL-2 melanoma, 33.6 µM; with NCI-H226 lung, 40.4 µM; with HCC-2998 colon it was 11.9 µM; in the experiment on A498 renal, 32.5 µM. For the same compound, the TGI amounted to 30.1 µM with IGROV1 ovarian; 30.7 µM in the experiment with NCI-H23 lung; 26.1 µM in the experiment on HCT-15 colon; 26 µM in the experiment on T-47D breast; 22.7 µM with SNB-75 CNS; 25.7 µM in the experiment on CCRF-CEM leukemia. Besides, in the experiment with LOX IMVI melanoma, the TGI turned out to be 28.9 µM.
As to `Cc1ccccc1C(=O)NC(O)(C(F)(F)F)C(F)(F)F`, the TGI in the experiment with SW-620 colon, in the experiment on CAKI-1 renal, with SK-MEL-2 melanoma, with NCI-H226 lung, in the experiment with HCC-2998 colon and in the experiment with A498 renal was more than 100 µM throughout. Moreover, the TGI with IGROV1 ovarian is more than 100 µM; in the experiment on NCI-H23 lung it was more than 100 µM; in the experiment with HCT-15 colon, more than 100 µM; in the experiment on T-47D breast, more than 100 µM; in the experiment with SNB-75 CNS, 3.17 µM; in the experiment on CCRF-CEM leukemia it was more than 100 µM. In the experiment with LOX IMVI melanoma, this compound returned a TGI of more than 100 µM.
In the case of `COC(=O)c1ccc(-n2c(C)nc(=O)c(-c3ccccc3)c2C)cc1`, the TGI in the experiment with SW-620 colon, with CAKI-1 renal, in the experiment with SK-MEL-2 melanoma, with NCI-H226 lung, with HCC-2998 colon and in the experiment on A498 renal was more than 100 µM throughout. In addition, the TGI in the experiment with IGROV1 ovarian, with NCI-H23 lung, in the experiment on HCT-15 colon, in the experiment with T-47D breast, with SNB-75 CNS and in the experiment on CCRF-CEM leukemia was more than 100 µM throughout. The compound also returned a TGI in the experiment on LOX IMVI melanoma of more than 100 µM.

These data come from PubChem BioAssay (NCI).
